Measured values taken from patent US10894772B2, “Flavor modulator having pyridine derivative or salt thereof as active ingredient” (T. HASEGAWA CO., LTD., priority 2015, dated 2021).

What was measured:
Assay type in all cases: in vivo
panelists [1] = experiment: Confirmation of umami imparting and saltiness enhancing effect in 0.3 mass % sodium chloride (evaluation in words); conditions: average of 5 panelists, Example 108
Description: An aqueous 0.3 mass % sodium chloride solution (control), and solutions of 2-(3-benzyloxypropyl)pyridine dissolved in a 0.3 mass % sodium chloride solution to have the concentration shown in Table 17 were prepared. As comparative products, an aqueous 0.3 mass % sodium chloride solution (control), and a solution of a comparative product, 2-(2-benzyloxyethyl)pyridine dissolved in a 0.3 mass % sodium chloride solution to have the same concentration were prepared. Well-trained 5 panelists tasted the solutions for organoleptic evaluation of umami impartment and saltiness enhancement.
An aqueous 0.3 mass % sodium chloride solution (control), and solutions of the invention product 201 or the reference product 202 dissolved in a 0.3 mass % sodium chloride solution to have the concentration as 2-(3-benzyloxypropyl)pyridine therein shown in the following Table 23 were prepared. Well-trained 5 panelists tasted the solutions for organoleptic evaluation of umami impartment and saltiness enhancement.

panelists [2] = experiment: Confirmation of umami in water (point score); conditions: average point of 10 panelists, 0 no difference from control (water), 1 somewhat stronger, 2 stronger, 3 considerably stronger, 4 poor taste balance
Description: As a comparative product, a solution was prepared by dissolving the comparative product 1 (2-(2-benzyloxyethyl)pyridine) to have the same concentration. Water with no addition was prepared as a control product. Well-trained 10 panelists tasted the solutions prepared by dissolving any the invention products 1 to 6 and the comparative product 1 for organoleptic evaluation of umami.
Umami evaluation was based on the control product of water.

panelists [3] = experiment: Confirmation of umami in water (organoleptic evaluation of taste and flavor in words); conditions: average of 5 panelists
Description: A solution was prepared by dissolving 2-(3-benzyloxypropyl)pyridine (invention product 101) in water to have a concentration shown in Table 15. As a comparative product, a solution was prepared by dissolving 2-(2-benzyloxyethyl)pyridine (comparative product 1 prepared in Comparative Example 1) to have the same concentration. Well-trained 5 panelists tasted the solutions and non-added water for organoleptic evaluation of taste and flavor.
The invention product 101 and the comparative product 1 were individually diluted with ethanol to have a proper concentration, and then further diluted with water to prepare an aqueous solution of 2-(3-benzyloxypropyl)pyridine (invention product 101 produced in Example 101) and that of 2-(2-benzyloxyethyl)pyridine (comparative product synthesized in Comparative Example 1) each having a concentration shown in the following Table 21. Well-trained panelists tasted the solution having a different concentration and non-added water for organoleptic evaluation in point of taste and flavor. […]

panelists [4] = experiment: Confirmation of umami imparting and saltiness enhancing effect in 0.3 mass % sodium chloride (point score); conditions: average point of 10 panelists vs control, 0 no change, 1 slightly higher, 2 higher, 3 considerably higher, 4 extremely higher umami and saltiness, 5 bitter as lacking balance
Description: An aqueous 0.3 mass % sodium chloride solution (control), and solutions of the invention products 1 to 6 each dissolved in a 0.3 mass % sodium chloride solution to have the concentration shown in Table 5 were prepared. As a comparative product, a solution was prepared by dissolving the comparative product 1 in 0.3 mass % sodium chloride. Well-trained 10 panelists tasted the solutions for organoleptic evaluation of umami impartment and saltiness enhancement.
Umami and saltiness scores are as follows, based on the aqueous 0.3 mass % sodium chloride solution as a control. Each sample was given any of a point 0, no change from control; 1, slightly higher umami and saltiness than control; 2, higher umami and saltiness than control; 3, considerably higher umami and saltiness than control; 4, extremely higher umami and saltiness than control; and 5, bitter as lacking balance of umami and saltiness.

Compound: c1ccc(COCCc2ccccn2)cc1 [comparative product 1, 2-(2-benzyloxyethyl)pyridine, reference compound]
- Organoleptic Evaluation (umami impartment and saltiness enhancement) (panelists [1]; 0.1 ppm in 0.3 mass % sodium chloride solution): Umami as compared with control.
- Organoleptic Evaluation (umami impartment and saltiness enhancement) (panelists [1]; 10 ppb in 0.3 mass % sodium chloride solution): Slightly umami as compared with control.
- umami (average point) (panelists [2]; 0.1 ppm in water): 0.8
- umami (average point) (panelists [2]; 1 ppm in water): 1.5
- umami (average point) (panelists [2]; 2 ppb in water): 0.0
- umami (average point) (panelists [2]; 10 ppb in water): 0.1
- umami (average point) (panelists [2]; 20 ppm in water): 2.2
- umami (average point) (panelists [2]; 200 ppm in water): 2.8
- umami (average point) (panelists [2]; 500 ppm in water): 3.3
- umami (average point) (panelists [2]; 2000 ppm in water): 3.8
- Organoleptic Evaluation Taste (panelists [3]; 0.1 ppm dissolved in water, Example 107): Slightly umami.
- Organoleptic Evaluation Taste (panelists [3]; 0.1 ppm, diluted with ethanol, then with water, Reference Example 201): Slightly umami.
- Organoleptic Evaluation Taste (panelists [3]; 1 ppm dissolved in water, Example 107): Weakly umami.
- Organoleptic Evaluation Taste (panelists [3]; 1 ppm, diluted with ethanol, then with water, Reference Example 201): Weakly umami.
- Organoleptic Evaluation Flavor (panelists [3]; 2 ppb dissolved in water, Example 107): Nothing at all.
- Organoleptic Evaluation Flavor (panelists [3]; 2 ppb, diluted with ethanol, then with water, Reference Example 201): Nothing at all.
- Organoleptic Evaluation Flavor (panelists [3]; 10 ppb dissolved in water, Example 107): Nothing at all.
- Organoleptic Evaluation Flavor (panelists [3]; 10 ppb, diluted with ethanol, then with water, Reference Example 201): Nothing at all.
- Organoleptic Evaluation Taste (panelists [3]; 200 ppm dissolved in water, Example 107): Strongly umami.
- Organoleptic Evaluation Taste (panelists [3]; 200 ppm, diluted with ethanol, then with water, Reference Example 201): Strongly umami.
- umami and saltiness (average point) (panelists [4]; 0.05 ppb in aqueous 0.3 mass % sodium chloride solution): 0.0
- umami and saltiness (average point) (panelists [4]; 0.1 ppb in aqueous 0.3 mass % sodium chloride solution): 0.0
- umami and saltiness (average point) (panelists [4]; 0.1 ppm in aqueous 0.3 mass % sodium chloride solution): 2.1
- umami and saltiness (average point) (panelists [4]; 0.5 ppm in aqueous 0.3 mass % sodium chloride solution): 3.0
- umami and saltiness (average point) (panelists [4]; 1 ppb in aqueous 0.3 mass % sodium chloride solution): 0.6
- umami and saltiness (average point) (panelists [4]; 2 ppm in aqueous 0.3 mass % sodium chloride solution): 3.4
- umami and saltiness (average point) (panelists [4]; 10 ppb in aqueous 0.3 mass % sodium chloride solution): 1.5
- umami and saltiness (average point) (panelists [4]; 10 ppm in aqueous 0.3 mass % sodium chloride solution): 4.2
- umami and saltiness (average point) (panelists [4]; 50 ppm in aqueous 0.3 mass % sodium chloride solution): 4.8
